Experimental data: patent publication US20120230991A1, “METHODS AND COMPOUNDS FOR ENHANCING ANTI-CANCER THERAPY” (priority 2008, published 2012)

Columns and labels:
[1] = system: 697 Human B-ALL Cell Lines; experiment: MTT assay, chemosensitivity of 697 cells (wild type, shControl, Mer knockdown), 48 hours; type: cell-based
Protocol: Inhibition of Mer expression results in increased chemosensitivity in 697 cells. […] IC50 values were determined by non-linear regression of data from at least three independent experiments performed in triplicate, as shown in Table 1.

[2] = system: 697 cells; experiment: Flow cytometry of apoptotic and dead cells (YO-PRO-1 / propidium iodide), 697 cells; type: cell-based, human; conditions: 697 shMer1A vs shControl, 48 hours
Protocol: Apoptotic and dead cells were identified by flow cytometric analysis of cells stained with YO-PRO®-1 and propidium iodide: A) representative flow cytometry profiles; B) mean values and standard errors derived from 3 independent experiments.
Cultures of shControl or shMer1A 697 cells were exposed to 6-MP, VP-16, or medium only for 48 hours: A) Apoptotic and dead cells were identified by flow cytometric analysis of cells stained with YO-PRO®-1 and propidium iodide: Representative flow cytometry profiles; B) the percentages of apoptotic and dead cells are indicated in lower-right and upper-right quadrants, respectively. Mean values and standard errors derived from 3 independent experiments. Results were tested for significance using two-way ANOVA and Bonferroni posttests to compare shControl and shMer1A cells at equivalent drug concentrations.

[3] = system: A549 Human NSCLC Cell Lines; experiment: Relative cell numbers of A549 cells (wild type, shControl, Axl/Mer knockdown) after 48 hours of drug; type: cell-based; conditions: for IC50: 48 hours, relative cell number; for sensitivity of the shAxl9-D3 Axl knockdown clone: A549 shAxl9-D3, 48 hours
[4] = system: A549 Human NSCLC Cell Lines; experiment: BrdU incorporation ELISA, relative cell proliferation of A549 cells, 48 hours; type: cell-based; conditions: for sensitivity of A549 cells with inhibition of Mer expression: A549 Mer1-G8 knockdown, BrdU; for IC50: BrdU assay
Protocol: The relative cell proliferation was determined via a BrdU incorporation ELISA. IC50 values were determined by non-linear regression of data from at least three independent experiments performed in triplicate (see Table 3).

[5] = system: G12 astrocytoma cells; experiment: MTT assay, chemosensitivity of G12 astrocytoma control and knockdown cells; type: cell-based; conditions: MTT
Protocol: (§1) G12 control (shControl) and knockdown cells (shMer1 and shMer4; shAxl8 and shAxl9) were plated in 96-well plates at concentrations determined to allow linear growth over 3 days: A) cells were treated with varying concentrations of temozolomide and relative cell number was assessed 48 h after treatment by colorimetric assessment/MTT assay. Error bars denote experiments performed in triplicate. A172 control (shControl) and knockdown cells (shMer1A and shMer1B; shAxl8 and shAxl9) were plated in 96-well plates at concentrations determined to allow linear growth over 3 days: B) cells were treated with varying concentrations of carboplatin and relative cell number was assessed 48 h after treatment by colorimetric assessment/MTT assay. Error bars represent three independent experiments performed in triplicate.
(§2) Table 4 provides the IC50 with 95% CI for G12 and A172 control and Mer and Axl knockdown cells, in response to chemotherapy. In Table 4, ‘NR’ indicates an IC50 was never reached. ‘IND’ represents that that CI was indeterminate. The IC50 for each knockdown line was compared to the control line, and an ‘*’ represents that the comparison is statistically different while an ‘NS’ represents that there was no statistically significant difference because either the CI was indeterminate (as with the G12 shAxl9 line treated with carboplatin) or it overlapped with the shControl CI.

[6] = system: A172 glioblastoma cells; experiment: MTT assay, chemosensitivity of A172 control and knockdown cells; type: cell-based; conditions: MTT
Protocol: as §1, §2

[7] = system: A549 cells; experiment: Induction of apoptosis / cell death in A549 knockdown cells treated with doxorubicin; type: cell-based, human
[8] = 697 shMer1A (Mer knockdown) cells
[9] = 697 shMer1B (Mer knockdown) cells

For `Sc1ncnc2nc[nH]c12` [6-MP, 6-mercaptopurine], the IC50 ([1]; 697 Wild Type cells) was > 64000 nM, the IC50 ([1]; 697 shControl cells) was > 64000 nM and the IC50 [1, 8] was 2860 nM. For the same molecule, the IC50 [1, 9] was 3240 nM and the “induction of apoptotic cell death with Mer knockdown” value [2] was “increased induction of apoptotic cell death”.
In the case of `N.N.O=C([O-])C1(C(=O)[O-])CCC1.[Pt+2]` [Carbo, carboplatin], the IC50 ([3]; A549 Wild Type) is reported as > 160000 nM, the IC50 ([3]; A549 shAxl8-G5 (Axl knockdown)) is reported as 9130 nM and the IC50 ([3]; A549 shControl) is reported as > 160000 nM. For the same molecule, the IC50 ([3]; A549 shMer1-G8 (Mer knockdown)) was 93400 nM, the “sensitivity of A549 cells with inhibition of Mer expression” value ([4]; 48 hours) was “increased sensitivity” and the IC50 ([4]; A549 Wild Type, 48 hours) was 19800 nM. The IC50 ([4]; A549 shAxl8-G5, 48 hours) was 16900 nM, the IC50 ([4]; A549 shAxl9-D3, 48 hours) was 15200 nM and the IC50 ([4]; A549 shControl, 48 hours) was 15400 nM. It also gave an IC50 ([4]; A549 shMer1-G8, 48 hours) of 7200 nM, an IC50 ([5]; G12 shAxl8, 48 h) of 280 nM and an IC50 ([5]; G12 shAxl9, 48 h) of 200 nM. For the same molecule, the IC50 ([5]; G12 shControl, 48 h) was 47900 nM, the IC50 ([5]; G12 shMer1, 48 h) was 780 nM and the IC50 ([5]; G12 shMer4, 48 h) was 190 nM. The IC50 ([6]; A172 shAxl8, 48 h) was 35 nM, the IC50 ([6]; A172 shAxl9, 48 h) was 75 nM and the IC50 ([6]; A172 shMer1A, 48 h) was 820 nM. It also gave an IC50 ([6]; A172 shMer1B, 48 h) of 210 nM.
`N.N.[Cl][Pt][Cl]` [Cispl, cisplatin] showed an IC50 ([3]; A549 Wild Type) of 6480 nM, an IC50 ([3]; A549 shAxl8-G5 (Axl knockdown)) of 510 nM and an IC50 ([3]; A549 shAxl9-D3 (Axl knockdown)) of 3400 nM. The “sensitivity of the shAxl9-D3 Axl knockdown clone” value [3] was “more sensitive”, the IC50 ([3]; A549 shControl) was 8560 nM and the IC50 ([3]; A549 shMer1-G8 (Mer knockdown)) was 3000 nM. For the same molecule, the IC50 ([4]; A549 Wild Type, 48 hours) was 2100 nM, the IC50 ([4]; A549 shAxl8-G5, 48 hours) was 2700 nM and the IC50 ([4]; A549 shAxl9-D3, 48 hours) was 2300 nM. For the same molecule, the IC50 ([4]; A549 shControl, 48 hours) was 1700 nM and the IC50 ([4]; A549 shMer1-G8, 48 hours) was 1000 nM.
Molecule `COc1cccc2c1C(=O)c1c(O)c3c(c(O)c1C2=O)C[C@@](O)(C(=O)CO)C[C@@H]3O[C@H]1C[C@H](N)[C@H](O)[C@H](C)O1` [DOXO, doxorubicin] has an IC50 ([1]; 697 Wild Type cells) of 16.7 nM, an IC50 ([1]; 697 shControl cells) of 11.1 nM and an IC50 [1, 8] of 2.83 nM. For the same molecule, the IC50 [1, 9] was 3.26 nM, the “sensitivity of the shAxl9-D3 Axl knockdown clone” value [3] was “more sensitive” and the IC50 ([3]; Homo sapiens, A549, 48 h, A549 Wild Type) was 34.9 nM. The IC50 ([3]; Homo sapiens, A549, 48 h, A549 shAxl8-G5 (Axl knockdown)) was 2.1 nM, the IC50 ([3]; Homo sapiens, A549, 48 h, A549 shAxl9-D3 (Axl knockdown)) was 13 nM and the IC50 ([3]; Homo sapiens, A549, 48 h, A549 shControl) was 69.2 nM. For the same molecule, the IC50 ([3]; Homo sapiens, A549, 48 h, A549 shMer1-G8 (Mer knockdown)) was 71.2 nM, the “sensitivity of A549 cells with inhibition of Mer expression” value ([4]; 48 hours) was “increased sensitivity” and the IC50 ([4]; Homo sapiens, A549, 48 h, A549 Wild Type, 48 hours) was 43.1 nM. For the same molecule, the IC50 ([4]; Homo sapiens, A549, 48 h, A549 shAxl8-G5, 48 hours) was 50 nM, the IC50 ([4]; Homo sapiens, A549, 48 h, A549 shAxl9-D3, 48 hours) was 33.2 nM and the IC50 ([4]; Homo sapiens, A549, 48 h, A549 shControl, 48 hours) was 51.1 nM. For the same molecule, the IC50 ([4]; Homo sapiens, A549, 48 h, A549 shMer1-G8, 48 hours) was 20.4 nM, the “induction of apoptosis with inhibition of Axl” value ([7]; A549 Axl knockdown vs shControl) was “increased induction of apoptosis” and the “level of cell death in Mer knockdown cells” value ([7]; A549 Mer knockdown cells, treated vs untreated) was “did not increase the level of cell death”.
